Common to all, as to assay type: biochemical
In assay [1] the test system is Serotonin reuptake. Nature of the assay: Reuptake of serotonin (5-HT), [3H]-serotonin uptake in rat brain synapses. To be noted: in vitro, synapses from rats' brains, 15 min at 37° C. On the procedure:
(§1) The uptake tests were carried out in vitro on rat synapses.
The basal activity is determined by incubating the same mixture for 15 min at 37° C. in the presence of 10 μM imipramine to block the reuptake.
Following incubation, the samples are rapidly filtered in vacuo through glass fibre filters (GB/B, Packard) and rinsed twice with ice-cold incubation buffer to eliminate free [^3H]-serotonin. The filters are dried and the radioactivity retained is measured by a scintillation counter (Topcount, Packard) using a scintillation cocktail (Microscint O, Packard).
(§2) The results are expressed as a percentage inhibition of the reuptake of the neurotransmitter evaluated.

Assay [2] deals with Noradrenaline reuptake. Briefly: Reuptake of noradrenaline (NE), [3H]-NE uptake in synapses of rat hypothalamus. To be noted: in vitro, 20 min at 37° C. As for the experimental part:
as §1
The basal activity is determined by incubating the same mixture for 20 min at 37° C. in the presence of 10 μM of protriptyline to block the reuptake.
Following incubation, the samples are rapidly filtered in vacuo through glass fibre filters (GB/B, Packard) and rinsed twice with ice-cold incubation buffer to eliminate free [^3H]-NE. The filters are dried and the radioactivity retained is measured by a scintillation counter (Topcount, Packard) using a scintillation cocktail (Microscint O, Packard).
as §2

Assay [3] concerns Dopamine reuptake. Nature of the assay: Reuptake of dopamine (DA), [3H]-DA uptake in synapses of rat striatum. To be noted: in vitro, 15 min at 37° C. As for the experimental part:
as §1
Following incubation, the samples are rapidly filtered in vacuo through glass fibre filters (GB/B, Packard) and rinsed twice with ice-cold incubation buffer to eliminate free [^3H]-dopamine. The filters are dried and the radioactivity retained is measured by a scintillation counter (Topcount, Packard) using a scintillation cocktail (Microscint O, Packard).
as §2

With `CC(C)C[C@@H](c1c(O)c(C=O)c(O)c(C=O)c1O)[C@@H]1CC[C@@](C)(O)[C@@H]2[C@@H]3C(CC[C@]21C)C3(C)C` (stereo partly drawn) [Macrocarpal L], the “IC50 Serotonin reuptake” value in assay [1] is reported as 1.8 μg/ml of solution. In addition, the “IC50 Noradrenaline reuptake” value in assay [2] was 3.1 μg/ml of solution. Moreover, in assay [3], the “IC50 Dopamine reuptake” value is listed as 1.0 μg/ml of solution.
Taken in the same sequence, the figures for Hyperforin were 0.89 μg/ml of solution, 0.79 μg/ml of solution and 0.23 μg/ml of solution.

Values taken from patent publication US20100286284A1, “5-[1'-(DECAHYDRO-7-HYDROXY-1,1,3A,7-TETRAMETHYL-1H-CYCLOPROPA[A]NAPHTHALEN-4-YL)-3'-METHYLBUTYL]-2,4,6-TRIHYDROXY-1,3-BENZENEDICARBOXALDEHYDE AS MEDICAMENTS” (Pierre Fabre Medicament, priority 2008, published 2010).
